In the NIST ThermoML archive (doi:10.1016/j.jct.2015.10.004):
Several values for one entry are separate records, joined by “and”; a condition that tells them apart may be missing. Equal entries are not always repeated.

Assay: mn = molality of the nth substance listed, in mol/kg
Settings: 101 kPa, Liquid; for mass density: Pycnometric method; for electrical conductivity: Alternating current cell with electrodes

O=S(=O)([O-])C(F)(F)C(F)(F)C(F)(F)C(F)(F)F.[K+] [potassium perfluorobutanesulfonate] + O
Settings | electrical conductivity, 293.15 K [S/m] | electrical conductivity, 298.15 K [S/m] | electrical conductivity, 303.15 K [S/m] | electrical conductivity, 308.15 K [S/m] | electrical conductivity, 313.15 K [S/m] | mass density, 288.15 K [kg/m3] | mass density, 293.15 K [kg/m3] | mass density, 298.15 K [kg/m3] | mass density, 303.15 K
m1 = 0.0003 | 0.00278 | 0.00312 | 0.00344 | 0.00378 | 0.00413 | – | – | – | –
m1 = 0.00054 | 0.00499 | 0.00562 | 0.00619 | 0.00681 | 0.00742 | – | – | – | –
m1 = 0.00087 | 0.00784 | 0.00882 | 0.00972 | 0.0107 | 0.0117 | – | – | – | –
m1 = 0.00125 | 0.0111 | 0.0125 | 0.0138 | 0.0152 | 0.0166 | – | – | – | –
m1 = 0.00164 | 0.0145 | 0.0163 | 0.018 | 0.0197 | – | – | – | – | –
m1 = 0.00207 | 0.0181 | 0.0203 | 0.0226 | 0.0248 | 0.0271 | – | – | – | –
m1 = 0.00259 | 0.0227 | 0.0253 | 0.0279 | 0.0307 | 0.0335 | – | – | – | –
m1 = 0.00315 | 0.0273 | 0.0304 | 0.0336 | 0.0369 | 0.0403 | – | – | – | –
m1 = 0.00374 | 0.0322 | 0.0357 | 0.0395 | 0.0434 | 0.0474 | – | – | – | –
m1 = 0.00437 | 0.0372 | 0.0415 | 0.0457 | 0.0504 | 0.0549 | – | – | – | –
m1 = 0.00501 | 0.0423 | 0.0471 | 0.0521 | 0.0572 | 0.0625 | – | – | – | –
m1 = 0.00571 | 0.0478 | 0.0532 | 0.0588 | 0.0646 | 0.0705 | – | – | – | –
m1 = 0.00646 | 0.0537 | 0.0596 | 0.0658 | 0.0725 | 0.0792 | – | – | – | –
m1 = 0.00723 | 0.0596 | 0.0662 | 0.0732 | 0.0805 | 0.0878 | – | – | – | –
m1 = 0.00809 | 0.0661 | 0.0734 | 0.081 | – | 0.0976 | – | – | – | –
m1 = 0.00904 | 0.0731 | 0.0814 | – | – | – | – | – | – | –
m1 = 0.04 | – | – | – | – | – | 1006.5 | 1005.6 | 1004.3 | 1002.7 kg/m3 and 1002.8 kg/m3

O=S(=O)([O-])C(F)(F)C(F)(F)C(F)(F)C(F)(F)C(F)(F)C(F)(F)C(F)(F)C(F)(F)F.[K+] [potassium perfluorooctanesulfonate] + O
Settings | electrical conductivity, 293.15 K [S/m] | electrical conductivity, 298.15 K [S/m] | electrical conductivity, 303.15 K [S/m] | electrical conductivity, 308.15 K [S/m] | electrical conductivity, 313.15 K [S/m] | mass density, 288.15 K [kg/m3] | mass density, 293.15 K [kg/m3] | mass density, 298.15 K | mass density, 303.15 K
m1 = 0.0003 | – | 0.00301 | 0.00325 | 0.00359 | 0.00392 | – | – | – | –
m1 = 0.00033 | 0.00284 | 0.00326 | 0.00353 | 0.0039 | 0.00427 | – | – | – | –
m1 = 0.00036 | 0.00306 | 0.00352 | 0.00381 | 0.0042 | 0.0046 | – | – | – | –
m1 = 0.00039 | 0.00326 | 0.00376 | 0.00407 | 0.00449 | 0.00492 | – | – | – | –
m1 = 0.00041 | 0.00347 | 0.00399 | 0.00432 | 0.00478 | 0.00522 | – | – | – | –
m1 = 0.00044 | 0.00366 | 0.00421 | 0.00456 | 0.00504 | 0.0055 | – | – | – | –
m1 = 0.00046 | 0.00384 | 0.00444 | 0.00481 | 0.00531 | 0.0058 | – | – | – | –
m1 = 0.00049 | 0.00404 | 0.00466 | 0.00506 | 0.0056 | 0.0061 | – | – | – | –
m1 = 0.0005 | – | – | – | – | – | 999.3 | 998.3 | 997.1 kg/m3 and 997.2 kg/m3 | 995.7 kg/m3 and 995.8 kg/m3
m1 = 0.00052 | 0.00427 | 0.00492 | 0.00534 | 0.00592 | 0.00644 | – | – | – | –
m1 = 0.00054 | 0.00447 | 0.00516 | 0.00559 | 0.00621 | 0.00673 | – | – | – | –
m1 = 0.00057 | 0.00468 | 0.00541 | 0.00586 | 0.0065 | 0.00706 | – | – | – | –
m1 = 0.0006 | 0.0049 | 0.00564 | 0.00612 | 0.00679 | 0.00737 | – | – | – | –
m1 = 0.00062 | 0.0051 | 0.00589 | 0.00638 | 0.00709 | 0.00769 | – | – | – | –
m1 = 0.00066 | 0.00534 | 0.00616 | 0.00667 | 0.00742 | 0.00805 | – | – | – | –
m1 = 0.00069 | 0.00559 | 0.00643 | 0.00697 | 0.00775 | 0.00843 | – | – | – | –
m1 = 0.00071 | 0.0058 | 0.00669 | 0.00724 | 0.00806 | 0.00875 | – | – | – | –
m1 = 0.00075 | – | 0.00698 | 0.00756 | 0.00841 | 0.00914 | – | – | – | –
m1 = 0.00078 | – | 0.00721 | 0.00782 | 0.00871 | – | – | – | – | –
